# Experimental data reported in PubChem BioAssay (NCI).
#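 Following 48 hours of exposure in 96-well plates, responses at five concentrations were used to interpolate endpoints linearly. GI50: concentration for 50% inhibition of growth. TGI is the concentration that stops growth completely.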
# Key:
# Test in all cases: NCI tumour cell line growth inhibition, 48 h
# MDA-MB-435 = test system: MDA-MB-435
# SK-MEL-28 melanoma = test system: SK-MEL-28 melanoma
# TK-10 renal = test system: TK-10 renal
# SF-268 CNS = test system: SF-268 CNS
# RXF 393 renal = test system: RXF 393 renal
# MALME-3M melanoma = test system: MALME-3M melanoma
# NCI-H460 lung = test system: NCI-H460 lung
# RPMI-8226 leukemia = test system: RPMI-8226 leukemia
# NCI-H226 lung = test system: NCI-H226 lung
# KM12 colon = test system: KM12 colon
# SK-MEL-5 melanoma = test system: SK-MEL-5 melanoma
# HCC-2998 colon = test system: HCC-2998 colon
# OVCAR-4 ovarian = test system: OVCAR-4 ovarian
# U251 CNS = test system: U251 CNS
# CCRF-CEM leukemia = test system: CCRF-CEM leukemia
# HL-60(TB) leukemia = test system: HL-60(TB) leukemia
SMILES,TGI (MDA-MB-435),TGI (SK-MEL-28 melanoma),TGI (TK-10 renal),TGI (SF-268 CNS),TGI (RXF 393 renal),TGI (MALME-3M melanoma),TGI (NCI-H460 lung),TGI (RPMI-8226 leukemia),TGI (NCI-H226 lung),TGI (KM12 colon),TGI (SK-MEL-5 melanoma),TGI (HCC-2998 colon),TGI (OVCAR-4 ovarian),TGI (U251 CNS),TGI (CCRF-CEM leukemia),TGI (HL-60(TB) leukemia),GI50 (SF-268 CNS),GI50 (RXF 393 renal),GI50 (NCI-H226 lung)
Cc1c(C)c(S(=O)(=O)N(CCCN)OCCCN)c(C)c2c1OC(C)(C)C2,> 100 µM,> 100 µM,> 100 µM,> 100 µM,48.9 µM,42.1 µM,> 100 µM,> 100 µM,> 100 µM,38.9 µM,> 100 µM,40.9 µM,> 100 µM,38.3 µM,90 µM,–,–,–,–
Cc1cc(OCC(=O)N/N=C/C(Br)=C/c2ccccc2)nc(SCC(=O)N/N=C/C(Br)=C/c2ccccc2)n1,> 100 µM,> 100 µM,–,> 100 µM,> 100 µM,–,> 100 µM,> 100 µM,–,> 100 µM,> 100 µM,82.9 µM,> 100 µM,> 100 µM,> 100 µM,> 100 µM,–,–,–
COc1cc2c(cc1OC)C(N)CC2=O (stereo not drawn),> 100 µM,> 100 µM,> 100 µM,> 100 µM,> 100 µM,–,–,> 100 µM,> 100 µM,> 100 µM,> 100 µM,> 100 µM,> 100 µM,> 100 µM,> 100 µM,–,–,–,–
CC1OC(OC2C(O)COC(OC3C(C)OC(OC4C(OC(=O)[C@]56CCC(C)(C)C[C@@H]5C5=CCC7[C@@]8(C)C[C@H](O)[C@H](OC9OC(CO)C(O)C(OC%10OC(CO)C(O)C(O)C%10O)C9O)[C@@](C)(CO)[C@@H]8CC[C@@]7(C)[C@]5(C)CC6)OCC(O)C4O)C(O)C3O)C2O)C(O)C(O)C1O (stereo partly drawn),42.1 µM,22.9 µM,34.2 µM,39.7 µM,27.9 µM,30.8 µM,40.2 µM,51.8 µM,42.9 µM,55.2 µM,30.3 µM,32.9 µM,34.4 µM,32.8 µM,32.6 µM,–,–,–,–
C=CCNC1=C2C[C@@H](C)C[C@@H](OC)[C@H](OC(=O)CN)[C@H](C)/C=C(\C)[C@@H](OC(N)=O)[C@H](OC)/C=C\C=C(/C)C(=O)NC(=CC1=O)C2=O,14.3 µM,29.7 µM,14.2 µM,29.7 µM,17 µM,21.8 µM,18.3 µM,> 52.3 µM,–,9.87 µM,17.9 µM,1.29 µM,29.2 µM,29.1 µM,> 29.8 µM,8.53 µM,–,–,–
O=C(O)CCCOc1cc(-c2ccccc2F)nc2cc3c(cc12)OCO3,> 100 µM,> 100 µM,> 100 µM,> 100 µM,> 100 µM,> 100 µM,–,> 100 µM,> 100 µM,> 100 µM,> 100 µM,> 100 µM,> 100 µM,> 100 µM,9.86 µM,–,16.3 µM,7.68 µM,8.51 µM
NC(=O)NC(=O)c1cccc(NC(=O)CBr)c1,< 0.0358 µM,7.47 µM,0.281 µM,< 0.0275 µM,1.38 µM,0.746 µM,0.166 µM,0.306 µM,0.067 µM,14.4 µM,< 0.0184 µM,–,3.11 µM,0.0582 µM,–,< 0.0207 µM,–,–,–
N#CC(Cc1ccccc1Br)N(CCC1=CCCCC1)C(c1ccccc1)c1ccccc1 (stereo not drawn),> 100 µM,> 100 µM,> 100 µM,> 100 µM,> 100 µM,> 100 µM,> 100 µM,83.5 µM,–,> 100 µM,> 100 µM,> 100 µM,> 100 µM,> 100 µM,–,–,–,–,–
CN1CCC23c4c5ccc(O)c4OC2c2[nH]c4ccccc4c2CC3(O)C1C5 (stereo not drawn),36.9 µM,28.4 µM,43.5 µM,> 100 µM,66.1 µM,36.8 µM,> 100 µM,55 µM,–,> 100 µM,27.1 µM,32 µM,> 100 µM,52.9 µM,46.9 µM,–,–,–,–
NC(N)=NCCCC(NC(=O)OCCCCCCn1ccc(N)nc1=O)C(=O)O (stereo not drawn),> 100 µM,> 100 µM,> 100 µM,> 100 µM,> 100 µM,–,> 100 µM,> 100 µM,33.6 µM,> 100 µM,–,> 100 µM,> 100 µM,> 100 µM,> 100 µM,> 100 µM,–,–,–
COc1cccc(C2C3=C(COC3=O)Oc3cc4c(cc32)OCO4)c1 (stereo not drawn),0.0817 µM,> 100 µM,93.6 µM,> 62.6 µM,> 100 µM,> 100 µM,> 34 µM,3.03 µM,–,6.43 µM,> 43.1 µM,1.88 µM,> 100 µM,> 100 µM,7.74 µM,0.0524 µM,–,–,–
